{"source": "patent US9475841B2", "about": "“Melanoma antigen peptide and uses thereof” (INSERM (INSTITUT NATIONAL DE LA SANTE ET DE LA RECHERCHE …, priority 2012, dated 2016)", "key": {"[1]": {"test_system": "MELOE-1 specific CD4+ T cells", "assay": "MELOE-1 CD4+ T cell responses in PBMC from healthy donors: restimulation of microcultures with overlapping peptides, CD4/TNF-α staining", "format": "cell-based, human", "details": "for Microcultures containing MELOE-1 specific CD4+ T cells (TNF-α production): positive/tested microcultures", "method": "PBMC from healthy donors were stimulated with 10 μM of MELOE-1. After 14 days, the presence of CD4 T cells specific for the different regions of MELOE-1 was assessed by restimulating cells with MELOE-12-21, MELOE-111-30, MELOE-118-37 and MELOE-126-46 peptides, followed by CD4/TNF-α double staining and flow cytometry analysis. Between brackets is indicated the mean % of TNF-α producing CD4 T cells, in positive microcultures. NA: not available.\n(§1) PBMC from healthy donors or melanoma patients (2·10^5 cells/well) were cultured for 14 days with 10 μM of MELOE-1 whole antigen (46 amino acids) in RPMI medium supplemented with 8% HS, 50 IU/ml of rIL-2 (Chiron, France) and L-Glutamin, in 96-well multiplates. Microcultures were then restimulated individually with each overlapping peptide (MELOE-12-21, MELOE-111-30, MELOE-118-37, MELOE-12646 or MELOE-122-46 for melanoma patients) in the presence of 10 μg/mL brefeldin A for 5 hours and the percentage of CD4^+ specific T cells was assessed by TNF-α, IFN-γ or IL-4 intracellular staining. A negative control without peptide was included in all experiments.\nOur purpose was to look for the existence of class II helper epitopes all along MELOE-1 sequence (SEQ ID NO:20), in order to document the immunogenicity of the different regions of this melanoma antigen. We stimulated 2·10^7 PBMC from seven healthy donors with MELOE-1 whole antigen and tested, after a 14-day culture period the presence of CD4 T cells specific for each region of the protein. Microcultures were screened for TNFα production by CD4+ T cells, after restimulation with four MELOE-1 derived overlapping peptides (Table I), in an autopresentation assay. […] On the contrary, the central region 18-37, containing an already described DR11-restricted epitope (24-37) located just at the end of this 20-mer peptide (Rogel et al., 2011), induced specific responses in microcultures deriving from only 2/7 donors (HD9 and HD17, both expressing the DR11 element). In these two donors, we detected 6 and 7% of positive microcultures, containing between 0.6 to 3.7% of TNFα producing CD4 T cells."}, "[2]": {"test_system": "MELOE-1 specific CD4 T cells", "assay": "MELOE-1 CD4+ T cell responses in PBMC from melanoma patients: restimulation with peptides, CD4/IFN-γ (Th1) and CD4/IL4 (Th2) staining", "format": "cell-based, human", "details": "for mean % of cytokine producing CD4 T cells, in positive microcultures (IFN-γ): Th1; for mean % of cytokine producing CD4 T cells, in positive microcultures (IL4): Th2; for Th1 responses (IFN-γ positive microcultures) / Th2 responses (IL4 positive microcultures): positive/tested microcultures", "method": "PBMC from melanoma patients were stimulated with 10 μM of MELOE-1. After 14 days, the presence of CD4 T cells specific for the different regions of MELOE-1 was assessed by restimulating cells with MELOE-12-21, MELOE-111-30 and MELOE-122-46 peptides, followed by CD4/IFN-γ double staining for the detection of Th1 responses, and by CD4/IL4 double staining for Th2 responses. Between brackets is indicated the mean % of cytokine producing CD4 T cells, in positive microcultures.\nas §1\nIn order to confirm the immunogenicity of each MELOE-1 regions in melanoma patients, we stimulated melanoma patients PBMC with the MELOE-1 whole protein, and tested the reactivity of stimulated lymphocytes towards the three most immunogenic regions: 2-21, 11-30, and 22-46. For this study, instead of challenging microcultures with the 18-37 peptide, that appeared poorly immunogenic, we extended the C-terminus region from 26-46 to 22-46, in order to also detect responses to our previously described HLA-DR11-restricted epitope (24-37). […] We tested the induction of CD4 specific responses from MELOE-1 stimulated PBMC of […] melanoma patients. We documented CD4 responses specific for the central region of MELOE-1 (11-30) for 7/9 patients, whereas responses specific for MELOE-12-21 and MELOE-122-46 were respectively detected in 4/9 and 5/9 patients (Table III). These responses were mainly Th1 responses (IFN-g production) while less frequent Th2 responses specific for the three regions of MELOE-1 were detected in 3/9 patients for MELOE-12-21, 2/9 patients for MELOE-111-30 and 5/9 patients for MELOE-122-46 (Table III). […] Concerning Th2 responses, much less frequent, the C-term region appeared to induce more frequently the growth of IL-4 producing CD4 T cells than the two other regions (FIG. 2A). […] In summary, stimulation of patient's PBMC with MELOE-1 induced Th1 responses specific for diverse epitopes located all along the protein sequence, and among the different regions, the central region (11-30) and the C-term region (22-46) appeared to be especially immunogenic in term of frequency of responses."}}, "data": [{"sequence": "TSREQFLPSEGAACPPWHPS [MELOE-111-30]", "values": [{"measurement": "frequency of positive microcultures compared with the three other regions of MELOE-1", "setting": "[1]; all healthy donors, FIG. 1, p<0.0001", "result": "significantly higher"}, {"measurement": "mean % of TNF-α producing CD4 T cells, in positive microcultures", "setting": "[1]; donor HD9", "result": "(2.4% ± 1.5)"}, {"measurement": "Microcultures containing MELOE-1 specific CD4+ T cells (TNF-α production)", "setting": "[1]; donor HD9 (DPβ1*0902/1501, DQβ1*0301, DRβ1*1104/1201)", "result": "13/96"}, {"measurement": "mean % of TNF-α producing CD4 T cells, in positive microcultures", "setting": "[1]; donor HD17", "result": "(8.2% ± 6.5)"}, {"measurement": "Microcultures containing MELOE-1 specific CD4+ T cells (TNF-α production)", "setting": "[1]; donor HD17 (DPβ1*0401/0301, DQβ1*0301/0603, DRβ1*1101/1301)", "result": "26/96"}, {"measurement": "mean % of TNF-α producing CD4 T cells, in positive microcultures", "setting": "[1]; donor HD22", "result": "(3.9% ± 3.3)"}, {"measurement": "Microcultures containing MELOE-1 specific CD4+ T cells (TNF-α production)", "setting": "[1]; donor HD22 (DPβ1*0401/1101, DQβ1*0202, DRβ1*0701)", "result": "2/96"}, {"measurement": "mean % of TNF-α producing CD4 T cells, in positive microcultures", "setting": "[1]; donor HD24", "result": "(2% ± 1.4)"}, {"measurement": "Microcultures containing MELOE-1 specific CD4+ T cells (TNF-α production)", "setting": "[1]; donor HD24 (DPβ1*0401/0101, DQβ1*0501/0602, DRβ1*0101/1501)", "result": "46/96"}, {"measurement": "mean % of TNF-α producing CD4 T cells, in positive microcultures", "setting": "[1]; donor HD25", "result": "(1.2% ± 0.7)"}, {"measurement": "Microcultures containing MELOE-1 specific CD4+ T cells (TNF-α production)", "setting": "[1]; donor HD25 (DPβ1*0401/0402, DQβ1*0201, DRβ1*0301)", "result": "3/96"}, {"measurement": "mean % of TNF-α producing CD4 T cells, in positive microcultures", "setting": "[1]; donor HD27", "result": "(5% ± 3.4)"}, {"measurement": "Microcultures containing MELOE-1 specific CD4+ T cells (TNF-α production)", "setting": "[1]; donor HD27 (DQβ1*501/0201, DRβ1*0101/0301)", "result": "5/96"}, {"measurement": "Microcultures containing MELOE-1 specific CD4+ T cells (TNF-α production)", "setting": "[1]; donor HD28 (DRβ1*0301)", "result": "14/48"}, {"measurement": "donors in which CD4 responses against the region were detected", "setting": "[1]; seven healthy donors", "result": "each tested donor"}, {"measurement": "Th1 responses, % of tested microcultures", "setting": "[2]; 576 tested microcultures from melanoma patients, IFN-γ", "result": 10.8, "unit": "%"}, {"measurement": "patients in which Th2 responses were detected", "setting": "[2]; melanoma patients, IL4", "result": "2/9"}, {"measurement": "patients in which CD4 responses specific for the region were detected", "setting": "[2]; melanoma patients, Table III, Th1 (IFN-γ)", "result": "7/9"}, {"measurement": "mean % of cytokine producing CD4 T cells, in positive microcultures (IFN-γ)", "setting": "[2]; patient Pt ≠ 1", "result": "(1.4% ± 0.7)"}, {"measurement": "mean % of cytokine producing CD4 T cells, in positive microcultures (IL4)", "setting": "[2]; patient Pt ≠ 1", "result": "(1%)"}, {"measurement": "Th1 responses (IFN-γ positive microcultures)", "setting": "[2]; patient Pt ≠ 1", "result": "10/48"}, {"measurement": "Th2 responses (IL4 positive microcultures)", "setting": "[2]; patient Pt ≠ 1", "result": "1/48"}, {"measurement": "mean % of cytokine producing CD4 T cells, in positive microcultures (IFN-γ)", "setting": "[2]; patient Pt ≠ 2", "result": "(1.6% ± 1.2)"}, {"measurement": "Th1 responses (IFN-γ positive microcultures)", "setting": "[2]; patient Pt ≠ 2", "result": "16/96"}, {"measurement": "Th2 responses (IL4 positive microcultures)", "setting": "[2]; patient Pt ≠ 2", "result": "0/96"}, {"measurement": "Th1 responses (IFN-γ positive microcultures)", "setting": "[2]; patient Pt ≠ 3 (DPβ1*0201/2001, DQβ1*0303/0501, DRβ1*0101/0701)", "result": "5/96"}, {"measurement": "mean % of cytokine producing CD4 T cells, in positive microcultures (IFN-γ)", "setting": "[2]; patient Pt ≠ 3", "result": "(16.2% ± 33.2)"}, {"measurement": "Th2 responses (IL4 positive microcultures)", "setting": "[2]; patient Pt ≠ 3", "result": "0/96"}, {"measurement": "mean % of cytokine producing CD4 T cells, in positive microcultures (IFN-γ)", "setting": "[2]; patient Pt ≠ 4", "result": "(0.9% ± 0.5)"}, {"measurement": "Th1 responses (IFN-γ positive microcultures)", "setting": "[2]; patient Pt ≠ 4", "result": "9/48"}, {"measurement": "Th2 responses (IL4 positive microcultures)", "setting": "[2]; patient Pt ≠ 4", "result": "0/48"}, {"measurement": "mean % of cytokine producing CD4 T cells, in positive microcultures (IFN-γ)", "setting": "[2]; patient Pt ≠ 5", "result": "(1.5% ± 1.1)"}, {"measurement": "Th1 responses (IFN-γ positive microcultures)", "setting": "[2]; patient Pt ≠ 5", "result": "6/48"}, {"measurement": "Th2 responses (IL4 positive microcultures)", "setting": "[2]; patient Pt ≠ 5", "result": "0/48"}, {"measurement": "mean % of cytokine producing CD4 T cells, in positive microcultures (IFN-γ)", "setting": "[2]; patient Pt ≠ 6", "result": "(1.5% ± 1.9)"}, {"measurement": "Th1 responses (IFN-γ positive microcultures)", "setting": "[2]; patient Pt ≠ 6", "result": "5/48"}, {"measurement": "Th2 responses (IL4 positive microcultures)", "setting": "[2]; patient Pt ≠ 6", "result": "0/48"}, {"measurement": "Th1 responses (IFN-γ positive microcultures)", "setting": "[2]; patient Pt ≠ 7", "result": "0/48"}, {"measurement": "Th2 responses (IL4 positive microcultures)", "setting": "[2]; patient Pt ≠ 7", "result": "0/48"}, {"measurement": "mean % of cytokine producing CD4 T cells, in positive microcultures (IFN-γ)", "setting": "[2]; patient Pt ≠ 8", "result": "(2.9% ± 0.04)"}, {"measurement": "Th1 responses (IFN-γ positive microcultures)", "setting": "[2]; patient Pt ≠ 8", "result": "2/48"}, {"measurement": "Th2 responses (IL4 positive microcultures)", "setting": "[2]; patient Pt ≠ 8", "result": "0/48"}, {"measurement": "mean % of cytokine producing CD4 T cells, in positive microcultures (IL4)", "setting": "[2]; patient Pt ≠ 9", "result": "(0.6% ± 0.09)"}, {"measurement": "Th1 responses (IFN-γ positive microcultures)", "setting": "[2]; patient Pt ≠ 9", "result": "0/48"}, {"measurement": "Th2 responses (IL4 positive microcultures)", "setting": "[2]; patient Pt ≠ 9", "result": "9/48"}]}]}
